# Results taken from patent publication US4374988A, “4-Heteroarylimidazo-[1,5-A]pyrimidines” (American Cyanamid Company, priority 1981, dated 1983).
# Assays:
# [1] = test system: rats; assay: thirsty rat conflict test (non-conditioned passive avoidance); type: in vivo, rat (Wistar strain)
# From the text: Another test which has been employed to assess anti-anxiety effects is a non-conditioned passive avoidance procedure described by J. R. Vogel, B. Beer and D. E. Clody, "A Simple and Reliable Conflict Procedure for Testing Anti-Anxiety Agents", Psychopharmacologia, Vol. 21, pages 1-7 (1971). A conflict situation is induced in rats by a modification of this method. The test is referred to herein as the "thirsty rat conflict" test.
# Groups of 8 naive, Wistar strain rats, weighing 200-240 g. each, were deprived of water for 48 hours. The test compounds were administered in single or graded, oral or intraperitoneal doses, suspended in distilled water and one drop of polysorbate 80. The control animals received the vehicle alone. After 30 or 60 minutes, each rat was placed in an individual clear plexiglass chamber. Tap water was available ad libitum from a nipple located in a black plexiglass box adjacent to the main chamber. A circuit carrying a 0.7 milliampere AC shocking current was established between the stainless steel grid floor of the chamber and the nipple. After 20 licks of non-shocked drinking, a fixed ratio of a 2-second "shock-on" and 19 licks "shock-off" cycle began and continued for a total of 3 minutes. The number of shocks taken by each rat during a 3-minute interval was recorded and compared to a control group.
# [2] = test system: brain-specific receptors; assay: inhibition of 3H-benzodiazepine (3H-flunitrazepam) binding to brain-specific receptors; design: species or system rat (Wistar strain); conditions: 1 μM test compound (activity criterion), rat cortex P2 fraction, 0° C., 30 minutes
# [3] = test system: rats; assay: protection from pentylenetetrazole-induced clonic seizures in rats; type: in vivo, rat
# Procedure: The anti-anxiety properties of the novel compounds of the invention have been established in a test which indicates anxiolytic activity by the measure of protection from convulsions resulting from the administration of pentylenetetrazole (sold as METROZOL, Reg. T.M.). Single or graded dosage levels of the test compounds were administered orally or intraperitoneally (in a 2% starch vehicle, containing 5% v/v polyethylene glycol and one to two drops of polysorbate 80) to groups of at least 4 rats. Thirty or 60 minutes after administration, the rats were treated intravenously with pentylenetetrazole at a dosage of 23 mg/kg. of body weight. This dose is estimated to cause clonic seizures in 99% of unprotected rats. A test compound is considered active if it protects 50% or more of the rats from clonic seizures. It has been reported (R. T. Hill and D. H. Tedeschi, "Animal Testing and Screening Procedures in Evaluating Psychotropic Drugs" in "An Introduction to Psychopharmacology", Eds. R. R. Rech and K. E. Moore, Raven Press, New York, pages 237-288 (1971)) that there is a high degree of correlation between antagonism of pentylenetetrazole seizures in rats and anti-anxiety effects in higher mammals.
Structure (SMILES),"activity in the thirsty rat conflict test ([1]; oral, 25 mg./kg.)",inhibition of 3H-benzodiazepine binding [2],"anxiolytic activity (thirsty rat conflict test) ([1]; general statement, oral or intraperitoneal, active if shocks significantly higher than control (Mann-Whitney U test))","ED50 ([3]; Rattus norvegicus, oral, dosage effective in 50% of the rats, pentylenetetrazole 23 mg/kg i.v., read-out: ED50, resistance to convulsions induced by pentylenetetrazole)","anxiolytic activity (protection from pentylenetetrazole convulsions) ([3]; general statement, oral or intraperitoneal, active if 50% or more of rats protected)",resistance to convulsions induced by pentylenetetrazole (in words) ([3]; oral),"activity in the thirsty rat conflict test ([1]; intraperitoneal, 25 mg/kg)","resistance to convulsions induced by pentylenetetrazole ([3]; intraperitoneal, 50 mg./kg., pentylenetetrazole 23 mg/kg i.v.)"
"CCOC(=O)c1ncn2c(-c3cccnc3)ccnc12 [Example 15, Ethyl 4-(3-pyridyl)imidazo[1,5-a]pyrimidine-8-carboxylate]",inactive,49%,,,,,,
"N#Cc1ncn2c(-c3ccsc3)ccnc12 [Example 2, 4-(3-Thienyl)imidazo[1,5-a]pyrimidine-8-carbonitrile]",,20%,,,,,,
"N#Cc1ncn2c(-c3cccnc3)ccnc12 [Example 5, 4-(3-Pyridyl)imidazo[1,5-a]pyrimidine-8-carbonitrile]",active,19%,shown to possess anxiolytic activity,6.8 mg/kg,shown to possess anxiolytic activity,effective,,
"N#Cc1ncn2c(-c3cccs3)ccnc12 [Example 1, 4-(2-Thienyl)imidazo[1,5-a]pyrimidine-8-carbonitrile]",,39%,,,,,active,inactive
